Measurements published in patent US20030091533A1, “Regulation of mononuclear phagocyte stimulation” (priority 2001, published 2003).

B1: IFN-γ: Interferon gamma, primes mononuclear phagocytes, 200 U/ml (protein, UniProt P01579 24-161, looked up)
Interferon gamma: QDPYVKEAENLKKYFNAGHSDVADNGTLFLGILKNWKEESDRKIMQSQIVSFYFKLFKNFKDDQSIQKSVETIKEDMNVKFFNSNKKKRDDFEKLTNYSVTDLNVQRKAIHELIQVMAELSPAAKTGKRKRSQMLFRG

Columns and labels:
LPS-stimulated PBM [1] = test: IL-8 release by ELISA, PBM; format: cell-based, human; details: for effect on IL-8 release by LPS-stimulated PBM: preincubated 24 hour, LPS 20 hour
Procedure: PBM and AM obtained as described infra (1×10^6 PBM, 0.5×10^6 AM) were preincubated for 24 hour with cytokines, IL-4, IL-9 (20 ng/ml) and IFN-γ (200 U/ml) before the stimulation by LPS (1 μg/ml) for 20 h. Supernatants were harvested and frozen at −20° C. until cytokine titration. TNF-α release was determined in supernatants by a cytotoxic bioassay using WEHI 164 clone 13 target cells (Espevik and Nissen-Meyer, J. Immunol. Methods, 95:99-105 (1986) (incorporated herein by reference)), while IL-8 was quantitated in the same supernatants by ELISA. FIG. 5 depicts the effects of IL-9, IL-4, and IFN-γ on the release of TNFα (A) and IL-8 (B) by LPS-stimulated PBM and AM. Data are means±SEM (n=3). *P<0.001 compared with unstimulated cells; **P<0.05 compared with cells preincubated with medium.
Cells (1×10^6 PBM or 0.5×10^6 AM/well) were distributed in 24-well plates (Falcon), preincubated in cRPMI for 24 hours at 37° C., 5% CO2 with cytokines (IL-9, IL-4 (20 ng/ml) and IFN-γ (200 U/ml)) and stimulated for 20 hours with 1 μg/ml LPS without removing cytokines. Supernatants were harvested and frozen at −20° C. until cytokine titration. Release of TNF-α was quantified by a cytotoxicity bioassay using WEHI 164 cells clone 13, as previously described (Espevik and Nissen-Meyer, J. Immunol. Methods, 95:99-105 (1986) incorporated herein by reference), using rhTNF-α from Boehringer as a standard. IL-8, IL-10 and TGF-β1 concentrations were determined by ELISA. A kit from CLB (Amsterdam, The Netherlands) was used for IL-10 quantitation, following the manufacturer's protocol. A kit from Biosource allowed to determine TGF-β1 after the release from its latent complexes by a treatment of supernatants with ethanol acid (‘acid-treated supernatants’); TGF-P 1 was also assessed in crude supernatants (‘untreated supernatants’). […] The reaction was then developed in 0.03% v/v H2O2 substrate and 0.42 mM 3,3′,5,5′-tetramethylbenzidine as chromogen in 100 mM sodium acetate/citric acid buffer (pH 4.9), stopped with 2 M H2SO4, and read in a plate spectrometer at 450 nm. […]

LPS-stimulated PBM [2] = test: TGF-β1 release by ELISA, PBM; format: cell-based, human; details: for potentiation of TGF-β1 production by LPS-stimulated PBM: preincubated 24 hour
Procedure: FIG. 6 depicts the effect of IL-9, IL-4 and IFN-γ on the release of IL-10 (A) and TGF-β1 (B) by LPS-stimulated PBM and AM cultured under the same conditions as described in FIG. 5 Example I. D. TGF-β1 was determined by ELISA in crude supernatants (untreated supernatants) and in ethanol-acid (acid-treated) supernatants, using a kit from Biosource for determining TGF-β1 release from its latent complexes. An ELISA kit from CLB (Amsterdam, The Netherlands) was used to determine IL-10 following the manufacturer's protocol. […] Data are means±SEM (n=3). *P<0.05 compared with unstimulated cells; **P<0.05 compared with cells preincubated with medium.
Cells (1×10^6 PBM or 0.5×10^6 AM/well) were distributed in 24-well plates (Falcon), preincubated in cRPMI for 24 hours at 37° C., 5% CO2 with cytokines (IL-9, IL-4 (20 ng/ml) and IFN-γ (200 U/ml)) and stimulated for 20 hours with 1 μg/ml LPS without removing cytokines. Supernatants were harvested and frozen at −20° C. until cytokine titration. Release of TNF-α was quantified by a cytotoxicity bioassay using WEHI 164 cells clone 13, as previously described (Espevik and Nissen-Meyer, J. Immunol. Methods, 95:99-105 (1986) incorporated herein by reference), using rhTNF-α from Boehringer as a standard. IL-8, IL-10 and TGF-β1 concentrations were determined by ELISA. A kit from CLB (Amsterdam, The Netherlands) was used for IL-10 quantitation, following the manufacturer's protocol. A kit from Biosource allowed to determine TGF-β1 after the release from its latent complexes by a treatment of supernatants with ethanol acid (‘acid-treated supernatants’); TGF-P 1 was also assessed in crude supernatants (‘untreated supernatants’). To assay for IL-8, 96-well plates were coated overnight at 4° C. with 4 μg/ml anti-hIL-8 mAb (Sigma, clone 6217.11) in 100 mM sodium carbonate buffer (pH 9.6). After washings in PBS containing 0.1% v/v Tween 20 and blocking for 1 hour at 37° C. with 1% w/v BSA in the same buffer, rhIL-8 standards (Biosource International) and supernatants were incubated for 2 hour at 37° C. Plates were then incubated with 20 ng/ml biotinylated polyclonal anti-hIL-8 Ab (R§D Systems) in blocking buffer and, after washings, with HRP-conjugated streptavidin (Sigma). The reaction was then developed in 0.03% v/v H2O2 substrate and 0.42 mM 3,3′,5,5′-tetramethylbenzidine as chromogen in 100 mM sodium acetate/citric acid buffer (pH 4.9), stopped with 2 M H2SO4, and read in a plate spectrometer at 450 nm. The sensitivity of the TNF-α bioassay was 0.2 pg/ml, and that of IL-8, IL-10, and TGF-β1 immunoassays 10 pg/ml, 2 pg/ml, and 2 pg/ml, respectively. All supernatants were assayed in duplicate.

Row | Molecule | IL-8 release by LPS-stimulated PBM (LPS-stimulated PBM [1]; preincubated 24 hour with cytokine or medium, LPS 1 μg/ml 20 hour, without LPS 10.0±2.4) | potentiation of TGF-β1 production by LPS-stimulated PBM (LPS-stimulated PBM [2]; LPS 20 h) | effect on IL-8 release by LPS-stimulated PBM (LPS-stimulated PBM [1]) | production of TGF-β1 by LPS-stimulated PBM (LPS-stimulated PBM [2]; acid-treated supernatants, preincubated 24 hour 20 ng/ml, LPS 20 h, medium-preincubated 586±64) | modulation of TGF-β1 in unstimulated PBM (LPS-stimulated PBM [2]; without LPS)
1 | IL-4: Th2 cytokine interleukin-4 used as comparator, 20 ng/ml | 20.1 ± 2.1 ng/mL | not observed | – | – | –
2 | IL-9: Human IL-9 purified from SF9 insect cell cultures infected with recombinant baculovirus | – | – | no significant modulation | 1687 ± 94 pg/mL | no modulation
3 | B1 | – | not observed | no significant modulation | – | –
